Results taken from BindingDB's records for patent US9572811 (Principia Biopharma, 2017).

Target: Tyrosine-protein kinase BTK (Homo sapiens, UniProt Q06187)
Assay: Caliper-based kinase assay
Conditions: 25 °C
Procedure: A Caliper-based kinase assay (Caliper Life Sciences, Hopkinton, Mass.) was used to measure inhibition of Btk kinase activity of a compound of Formula (I). […] The reaction was then terminated with EDTA, final concentration 20 mM and the phosphorylated reaction product was quantified on a Caliper Desktop Profiler (Caliper LabChip 3000).

Sequence of Tyrosine-protein kinase BTK (Q06187 whole entry): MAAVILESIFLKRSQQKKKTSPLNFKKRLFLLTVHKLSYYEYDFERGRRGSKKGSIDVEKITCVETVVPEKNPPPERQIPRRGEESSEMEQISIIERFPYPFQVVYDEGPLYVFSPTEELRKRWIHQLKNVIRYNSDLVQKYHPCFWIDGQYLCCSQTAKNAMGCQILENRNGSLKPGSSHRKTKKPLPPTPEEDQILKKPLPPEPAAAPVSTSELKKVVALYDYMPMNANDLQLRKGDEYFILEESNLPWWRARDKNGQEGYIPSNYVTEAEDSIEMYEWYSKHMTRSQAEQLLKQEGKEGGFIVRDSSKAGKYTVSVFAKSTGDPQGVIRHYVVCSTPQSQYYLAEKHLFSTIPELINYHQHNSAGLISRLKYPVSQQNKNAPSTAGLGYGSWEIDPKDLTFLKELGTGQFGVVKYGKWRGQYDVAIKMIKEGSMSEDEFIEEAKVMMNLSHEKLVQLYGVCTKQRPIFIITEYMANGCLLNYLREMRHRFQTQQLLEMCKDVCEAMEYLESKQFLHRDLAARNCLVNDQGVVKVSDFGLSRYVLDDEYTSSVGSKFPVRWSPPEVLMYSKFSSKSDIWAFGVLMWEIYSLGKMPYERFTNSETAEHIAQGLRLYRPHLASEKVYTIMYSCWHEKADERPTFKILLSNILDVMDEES

`CN(CCn1nc(-c2ccc(Oc3ccccc3)cc2)c2c(N)ncnc21)C(=O)C(C#N)=CC1CC1` [US9572811, Example 36A] gave an IC50 of 4.3 nM.
